Reference: patent US10597388B2, “Pyridazinone herbicides” (FMC CORPORATION, priority 2014, dated 2020)

Tests used:
Assay type in all cases: in vivo
[1] = system: johnsongrass (Sorghum halepense); test: Test C greenhouse herbicide test, pre- and postemergence
How it was run: (§1)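 Greenhouse pots; pre-em on seeded loam:sand blend, post-em on 2–18 cm plants (1–4 leaf) in sphagnum peat/vermiculite medium. Formulation: non-phytotoxic solvent + surfactant. Read-out: visual % control (0–100) vs controls at 13–15 d.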

[2] = system: morningglory (Ipomoea coccinea); test: as above
How it was run: as §1

[3] = system: wheat (winter wheat, Triticum aestivum); test: as above
How it was run: as §1

corn (Zea mays) = test: as above
How it was run: as §1

[4] = system: foxtail, giant (giant foxtail, Setaria faberii); test: as above
How it was run: as §1

[5] = system: waterhemp (common waterhemp, Amaranthus rudis); test: as above
How it was run: as §1

[6] = system: lambsquarters (Chenopodium album); test: as above
How it was run: as §1

[7] = system: crabgrass, large (large crabgrass, Digitaria sanguinalis); test: as above
How it was run: as §1

[8] = system: oilseed rape (Brassica napus); test: as above
How it was run: as §1

kochia (Kochia scoparia) = test: Test A greenhouse herbicide test, pre- and postemergence
How it was run: (§2)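 Visual injury ratings, 0 (no effect) to 100 (complete control), versus untreated plants after roughly 10 d in a greenhouse. Compounds, formulated in a surfactant-containing non-phytotoxic solvent, were sprayed on loam–sand soil after sowing (pre) or on one- to two-leaf plants 2–10 cm tall (post).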

[9] = system: barnyardgrass (Echinochloa crus-galli); test: as above
How it was run: as §2

[10] = 4 g ai/ha, preemergence, visual rating, scale 0 to 100 (0 no effect, 100 complete control), 13 to 15 d
[11] = Postemergence, 8 g ai/ha, scale 0 to 100 (0 no effect, 100 complete control)
[12] = Postemergence, 16 g ai/ha, scale 0 to 100 (0 no effect, 100 complete control)
[13] = Postemergence, 31 g ai/ha, scale 0 to 100 (0 no effect, 100 complete control)
[14] = Preemergence, 16 g ai/ha, scale 0 to 100, 0 is no effect, 100 is complete control
[15] = Preemergence, 31 g ai/ha, scale 0 to 100, 0 is no effect, 100 is complete control
[16] = Preemergence, 8 g ai/ha, scale 0 to 100, 0 is no effect, 100 is complete control
[17] = Postemergence, 125 g ai/ha, 0 to 100 scale where 0 is no effect and 100 is complete control
[18] = Postemergence, 500 g ai/ha, visual rating after approx. 10 d, 0 to 100 scale (0 no effect, 100 complete control)
[19] = Preemergence, 125 g ai/ha, 0 to 100 scale where 0 is no effect and 100 is complete control
[20] = Preemergence, 500 g ai/ha, 0 to 100 scale where 0 is no effect and 100 is complete control

In the case of `Cc1ccc2ccc(Cl)cc2c1-c1c(O)c(C)nn(C)c1=O` [Compound 144], the “Plant response rating, Johnsongrass” value [1, 10] is reported as 0, the “Johnsongrass plant response rating” value [1, 11] is reported as 20 and the “Plant response rating, Johnsongrass” value [1, 11] is reported as 10. For the same compound, the “Plant response rating, Johnsongrass” value [1, 12] was 10, the “Plant response rating, Johnsongrass” value [1, 13] was 10 and the “Plant response rating, Johnsongrass” value [1, 14] was 25. For the same compound, the “Plant response rating, Johnsongrass” value [1, 15] was 60, the “Plant response rating, Morningglory” value [2, 10] was 25 and the “Morningglory plant response rating” value [2, 11] was 90. The “Plant response rating, Morningglory” value [2, 11] was 95, the “Plant response rating, Morningglory” value [2, 12] was 98 and the “Plant response rating, Morningglory” value [2, 13] was 98. For the same compound, the “Plant response rating, Morningglory” value [2, 14] was 80, the “Plant response rating, Morningglory” value [2, 15] was 90 and the “Plant response rating, Wheat” value [3, 10] was 0. The “Plant response rating, Wheat” value [3, 11] was 90, the “Wheat plant response rating” value [3, 11] was 90 and the “Plant response rating, Wheat” value [3, 12] was 95. The “Plant response rating, Wheat” value [3, 13] was 95, the “Plant response rating, Wheat” value [3, 14] was 70 and the “Plant response rating, Wheat” value [3, 15] was 90. The “Plant response rating, Corn” value (corn (Zea mays); [10]) was 0, the “Plant response rating, Corn” value (corn (Zea mays); Postemergence, 4 g ai/ha, scale 0 to 100 (0 no effect, 100 complete control)) was 0 and the “Plant response rating, Corn” value (corn (Zea mays); [11]) was 0. The “Plant response rating, Corn” value (corn (Zea mays); [12]) was 5, the “Plant response rating, Corn” value (corn (Zea mays); [13]) was 30 and the “Plant response rating, Corn” value (corn (Zea mays); [16]) was 0. For the same compound, the “Plant response rating, Corn” value (corn (Zea mays); [14]) was 0, the “Plant response rating, Corn” value (corn (Zea mays); [15]) was 0 and the “Plant response rating, Foxtail, Giant” value [4, 10] was 30. For the same compound, the “Foxtail, Giant plant response rating” value [4, 11] was 45, the “Plant response rating, Foxtail, Giant” value [4, 11] was 50 and the “Plant response rating, Foxtail, Giant” value [4, 12] was 60. For the same compound, the “Plant response rating, Foxtail, Giant” value [4, 13] was 70, the “Plant response rating, Foxtail, Giant” value [4, 16] was 60 and the “Plant response rating, Foxtail, Giant” value [4, 14] was 75. For the same compound, the “Plant response rating, Foxtail, Giant” value [4, 15] was 90, the “Plant response rating, Waterhemp” value [5, 10] was 80 and the “Plant response rating, Waterhemp” value [5, 11] was 90. For the same compound, the “Waterhemp plant response rating” value [5, 11] was 90, the “Plant response rating, Waterhemp” value [5, 12] was 90 and the “Plant response rating, Waterhemp” value [5, 13] was 95. For the same compound, the “Plant response rating, Waterhemp” value [5, 14] was 100, the “Plant response rating, Waterhemp” value [5, 15] was 100 and the “Plant response rating, Lambsquarters” value [6, 10] was 25. For the same compound, the “Lambsquarters plant response rating” value [6, 11] was 80, the “Plant response rating, Lambsquarters” value [6, 11] was 90 and the “Plant response rating, Lambsquarters” value [6, 12] was 90. The “Plant response rating, Lambsquarters” value [6, 13] was 90, the “Plant response rating, Lambsquarters” value [6, 14] was 65 and the “Plant response rating, Lambsquarters” value [6, 15] was 100. The “Plant response rating, Crabgrass, Large” value [7, 10] was 0, the “Crabgrass, Large plant response rating” value [7, 11] was 20 and the “Plant response rating, Crabgrass, Large” value [7, 11] was 20. The “Plant response rating, Crabgrass, Large” value [7, 12] was 25, the “Plant response rating, Crabgrass, Large” value [7, 13] was 30 and the “Plant response rating, Crabgrass, Large” value [7, 16] was 5. The “Plant response rating, Crabgrass, Large” value [7, 14] was 25, the “Plant response rating, Crabgrass, Large” value [7, 15] was 60 and the “Plant response rating, Oilseed Rape” value [8, 10] was 0. For the same compound, the “Oilseed Rape plant response rating” value [8, 11] was 85, the “Plant response rating, Oilseed Rape” value [8, 11] was 95 and the “Plant response rating, Oilseed Rape” value [8, 12] was 95. For the same compound, the “Plant response rating, Oilseed Rape” value [8, 13] was 95, the “Plant response rating, Oilseed Rape” value [8, 14] was 5 and the “Plant response rating, Oilseed Rape” value [8, 15] was 70. The “Plant response rating, Kochia” value (kochia (Kochia scoparia); [17]) was 100, the “Plant response rating, Kochia” value (kochia (Kochia scoparia); [18]) was 100 and the “Kochia plant response rating” value (kochia (Kochia scoparia); [19]) was 100. For the same compound, the “Plant response rating, Kochia” value (kochia (Kochia scoparia); [20]) was 100, the “Plant response rating, Barnyardgrass” value [9, 17] was 100 and the “Plant response rating, Barnyardgrass” value [9, 18] was 100. For the same compound, the “Barnyardgrass plant response rating” value [9, 19] was 90 and the “Plant response rating, Barnyardgrass” value [9, 20] was 100.
